For twelve compounds, T/C results are on record in PubChem BioAssay AID220 (DTP/NCI, 2004).

The test deals with CD8F1 mice, subcutaneous mammary adenocarcinoma, T/C%. The test is described as follows: NCI In Vivo Anticancer Drug Screen. Data for tumor model Mammary Adenocarcinoma CD8F1 (subcutaneous) in CD8F1. The following applies: higher = larger tumour. Put shortly: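 Transplantable tumors were established in mice, animals were dosed with compound or vehicle, and survival or tumor size was then measured in both groups. The treated result was divided by the control result.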

Setting [1] is: endpoint: median tumor weight (est.), dose: 12.5 mg/kg/injection, schedule: Q07DX005 (ip), vehicle: Klucel (hydroxypropylcellulose) (HPC).

Several values for one entry are separate records, joined by “and”; a condition that tells them apart may be missing. Identical values can stand only once. Inconclusive results are not listed.

As to `COc1ccc2c(NCCCCCCCCNc3c4ccccc4nc4cc(OC)ccc34)c3ccccc3nc2c1`, the T/C (endpoint: median tumor weight (est.), dose: 0.47 mg/kg/injection, schedule: Q07DX005 (ip), vehicle: other) was 42 % of control; the T/C (endpoint: median tumor weight (est.), dose: 0.94 mg/kg/injection, schedule: Q07DX005 (ip), vehicle: other) was 63 % of control; the T/C (endpoint: median tumor weight (est.), dose: 1.87 mg/kg/injection, schedule: Q07DX005 (ip), vehicle: other) was 152 % of control; the T/C (endpoint: median tumor weight (est.), dose: 1.88 mg/kg/injection, schedule: Q07DX005 (ip), vehicle: other) was 50 % of control; the T/C (endpoint: median tumor weight (est.), dose: 3.75 mg/kg/injection, schedule: Q07DX005 (ip), vehicle: other) is 53 % of control; the T/C (endpoint: median tumor weight (est.), dose: 7.5 mg/kg/injection, schedule: Q07DX005 (ip), vehicle: other) was 36 % of control.

In the case of `OCC1OC(n2cnc3c(Cl)ncnc32)C(O)C1O` (stereo unspecified), the T/C reads like this: (endpoint: median tumor weight (est.), dose: 12.5 mg/kg/injection, schedule: Q07DX005 (ip), vehicle: saline) 90 % of control; (endpoint: median tumor weight (est.), dose: 25.0 mg/kg/injection, schedule: Q07DX005 (ip), vehicle: saline) 26 % of control; (endpoint: median tumor weight (est.), dose: 100.0 mg/kg/injection, schedule: Q07DX005 (ip), vehicle: saline) 28 % of control; (endpoint: median tumor weight (est.), dose: 200.0 mg/kg/injection, schedule: Q07DX005 (ip), vehicle: saline) 71 % of control; (endpoint: median tumor weight (est.), dose: 400.0 mg/kg/injection, schedule: Q07DX005 (ip), vehicle: saline) 115 % of control.

Take `COC1C(O)CC(OC2CC(Oc3cc4cc5c(c(O)c4c(O)c3C)C(=O)[C@@H](OC3CC(OC4CC(OC6CC(C)(O)C(OC(C)=O)C(C)O6)C(O)C(C)O4)C(O)C(C)O3)[C@H]([C@H](OC)C(=O)[C@@H](O)[C@@H](C)O)C5)OC(C)C2OC(C)=O)OC1C` (stereo partly specified): the T/C is 46 % of control (endpoint: median tumor weight (est.), dose: 0.04 mg/kg/injection, schedule: Q07DX005 (ip), vehicle: saline); 93 % of control (endpoint: median tumor weight (est.), dose: 0.09 mg/kg/injection, schedule: Q07DX005 (ip), vehicle: saline); 70 % of control (endpoint: median tumor weight (est.), dose: 0.36 mg/kg/injection, schedule: Q07DX005 (ip), vehicle: saline); 76 % of control and 92 % of control (endpoint: median tumor weight (est.), dose: 0.72 mg/kg/injection, schedule: Q07DX005 (ip), vehicle: saline); 63 % of control (endpoint: median tumor weight change, dose: 0.25 mg/kg/injection, schedule: Q01DX001 (ip), vehicle: saline); 42 % of control (endpoint: median tumor weight change, dose: 0.5 mg/kg/injection, schedule: Q01DX001 (ip), vehicle: saline). Further, the T/C (endpoint: median tumor weight change, dose: 1.0 mg/kg/injection, schedule: Q01DX001 (ip), vehicle: saline) is 44 % of control.

`CC(=O)C1(O)Cc2c(O)c3c(c(O)c2C(OC2CC(N)C(O)C(C)O2)C1)C(=O)c1ccccc1C3=O` (stereo unspecified): the T/C was 81 % of control (endpoint: median tumor weight (est.), dose: 0.1 mg/kg/injection, schedule: Q07DX005 (ip), vehicle: saline); 55 % of control (endpoint: median tumor weight (est.), dose: 0.2 mg/kg/injection, schedule: Q07DX005 (ip), vehicle: saline); 48 % of control (endpoint: median tumor weight (est.), dose: 0.4 mg/kg/injection, schedule: Q07DX005 (ip), vehicle: saline).

With `NCCCC(N)(C(=O)O)C(F)F` (stereo unspecified), the T/C is, setting by setting: (endpoint: median tumor weight change, dose: 125.0 mg/kg/injection, schedule: Q01DX001 (ip), vehicle: distilled water + alcohol) 29 % of control; (endpoint: median tumor weight change, dose: 250.0 mg/kg/injection, schedule: Q01DX001 (ip), vehicle: distilled water + alcohol) 51 % of control; (endpoint: median tumor weight change, dose: 500.0 mg/kg/injection, schedule: Q01DX001 (ip), vehicle: distilled water + alcohol) 64 % of control; (endpoint: median tumor weight change, dose: 1000.0 mg/kg/injection, schedule: Q01DX001 (ip), vehicle: distilled water + alcohol) 36 % of control; (endpoint: median tumor weight change, dose: 2000.0 mg/kg/injection, schedule: Q01DX001 (ip), vehicle: distilled water + alcohol) 72 % of control.

Regarding `C[C@]12C=CC(=O)C=C1CC[C@@H]1[C@@H]2[C@@H](O)C[C@@]2(C)[C@H]1CC[C@]2(O)C(=O)CO`, the T/C was 111 % of control (endpoint: median tumor weight change, dose: 100.0 mg/kg/injection, schedule: Q01DX001 (ip), vehicle: Klucel (hydroxypropylcellulose) (HPC)); 67 % of control and 87 % of control and 90 % of control (endpoint: median tumor weight change, dose: 200.0 mg/kg/injection, schedule: Q01DX001 (ip), vehicle: Klucel (hydroxypropylcellulose) (HPC)); 32 % of control and 38 % of control and 52 % of control (endpoint: median tumor weight change, dose: 800.0 mg/kg/injection, schedule: Q01DX001 (ip), vehicle: Klucel (hydroxypropylcellulose) (HPC)); 14 % of control (endpoint: median tumor weight change, dose: 1600.0 mg/kg/injection, schedule: Q01DX001 (ip), vehicle: Klucel (hydroxypropylcellulose) (HPC)).

Turning to `COc1ccc(C[C@H](N)C(=O)NC2C(CO)OC(n3cnc4c(N(C)C)ncnc43)C2O)cc1` (stereo partly specified), the T/C (endpoint: median tumor weight (est.), dose: 48.0 mg/kg/injection, schedule: Q07DX005 (ip), vehicle: saline) is 90 % of control; the T/C (endpoint: median tumor weight (est.), dose: 96.0 mg/kg/injection, schedule: Q07DX005 (ip), vehicle: saline) is 63 % of control; the T/C (endpoint: median tumor weight (est.), dose: 192.0 mg/kg/injection, schedule: Q07DX005 (ip), vehicle: saline) is 62 % of control; the T/C (endpoint: median tumor weight (est.), dose: 384.0 mg/kg/injection, schedule: Q07DX005 (ip), vehicle: saline) was 16 % of control.

`CCC1CC2CN(CCc3c([nH]c4ccccc34)C(C(=O)OC)(c3cc4c(cc3OC)N(C)C3C(O)(C(=O)OC)C(OC(C)=O)C5(CC)C=CCN6CCC43C65)C2)C1` (stereo unspecified): the T/C was 99 % of control (endpoint: median tumor weight change, dose: 0.31 mg/kg/injection, schedule: Q01DX001 (ip), vehicle: suspension in saline); 165 % of control (endpoint: median tumor weight change, dose: 0.62 mg/kg/injection, schedule: Q01DX001 (ip), vehicle: saline); 59 % of control (endpoint: median tumor weight change, dose: 0.62 mg/kg/injection, schedule: Q01DX001 (ip), vehicle: suspension in saline); 110 % of control (endpoint: median tumor weight change, dose: 1.25 mg/kg/injection, schedule: Q01DX001 (ip), vehicle: saline); 105 % of control (endpoint: median tumor weight change, dose: 1.25 mg/kg/injection, schedule: Q01DX001 (ip), vehicle: suspension in saline); 88 % of control (endpoint: median tumor weight change, dose: 2.5 mg/kg/injection, schedule: Q01DX001 (ip), vehicle: suspension in saline). The T/C by setting is: (endpoint: median tumor weight change, dose: 5.0 mg/kg/injection, schedule: Q01DX001 (ip), vehicle: saline) 184 % of control; (endpoint: median tumor weight change, dose: 5.0 mg/kg/injection, schedule: Q01DX001 (ip), vehicle: suspension in saline) 109 % of control; (endpoint: median tumor weight change, dose: 10.0 mg/kg/injection, schedule: Q01DX001 (ip), vehicle: saline) 99 % of control; (endpoint: median tumor weight change, dose: 10.0 mg/kg/injection, schedule: Q01DX001 (ip), vehicle: suspension in saline) 70 % of control.

As for `CCC(=O)O[C@H]1CC[C@H]2[C@@H]3CCC4=CC(=O)CC[C@]4(C)[C@H]3CC[C@]12C`, the T/C is 99 % of control (endpoint: median tumor weight (est.), dose: 160.0 mg/kg/injection, schedule: Q07DX005 (ip), vehicle: Klucel (hydroxypropylcellulose) (HPC)) and 48 % of control (endpoint: median tumor weight (est.), dose: 640.0 mg/kg/injection, schedule: Q07DX005 (ip), vehicle: Klucel (hydroxypropylcellulose) (HPC)).

On to `NC(CCl)=NCC12CC3CC(CC(C3)C1)C2`, for which the T/C (endpoint: median tumor weight (est.), dose: 3.12 mg/kg/injection, schedule: Q07DX005 (ip), vehicle: Klucel (hydroxypropylcellulose) (HPC)) is 114 % of control; the T/C under setting [1] is 104 % of control and 119 % of control; the T/C (endpoint: median tumor weight (est.), dose: 25.0 mg/kg/injection, schedule: Q07DX005 (ip), vehicle: Klucel (hydroxypropylcellulose) (HPC)) is 90 % of control; the T/C (endpoint: median tumor weight (est.), dose: 50.0 mg/kg/injection, schedule: Q07DX005 (ip), vehicle: Klucel (hydroxypropylcellulose) (HPC)) was 39 % of control and 51 % of control.

`O.O.[NH-]C1CCCCC1[NH-].[Pt+2]` (stereo unspecified): the T/C is 50 % of control (endpoint: median tumor weight (est.), dose: 0.62 mg/kg/injection, schedule: Q07DX005 (ip), vehicle: dextrose); 69 % of control (endpoint: median tumor weight (est.), dose: 20.0 mg/kg/injection, schedule: Q07DX005 (ip), vehicle: dextrose); 39 % of control (endpoint: median tumor weight (est.), dose: 40.0 mg/kg/injection, schedule: Q07DX005 (ip), vehicle: dextrose).

Take `Cc1cc(N(CCOS(C)(=O)=O)CCOS(C)(=O)=O)ccc1C=Nc1ccc(-c2nc(Cc3ccccc3)sc2C)cc1`: the T/C is 18 % of control under setting [1]; 4 % of control and 9 % of control (endpoint: median tumor weight (est.), dose: 100.0 mg/kg/injection, schedule: Q07DX005 (ip), vehicle: Klucel (hydroxypropylcellulose) (HPC)); 10 % of control (endpoint: median tumor weight (est.), dose: 200.0 mg/kg/injection, schedule: Q07DX005 (ip), vehicle: Klucel (hydroxypropylcellulose) (HPC)).
